From publication PMC7618454, “Interleukin-1 receptor-associated kinase 4 (IRAK4) is a critical regulator of inflammatory signalling through toll-like receptors 4 and 7/8 in murine and human lungs” (British journal of pharmacology, 2024) come the findings set out here.

Experiment [1] has as its target T1, interleukin-1 receptor-associated kinase 4 (IRAK4) (Mus musculus, UniProt Q8R4K2).
T1 construct: kinase domain, aa 153–459, N-terminal His6-tagged
T1 sequence (Q8R4K2 153-459): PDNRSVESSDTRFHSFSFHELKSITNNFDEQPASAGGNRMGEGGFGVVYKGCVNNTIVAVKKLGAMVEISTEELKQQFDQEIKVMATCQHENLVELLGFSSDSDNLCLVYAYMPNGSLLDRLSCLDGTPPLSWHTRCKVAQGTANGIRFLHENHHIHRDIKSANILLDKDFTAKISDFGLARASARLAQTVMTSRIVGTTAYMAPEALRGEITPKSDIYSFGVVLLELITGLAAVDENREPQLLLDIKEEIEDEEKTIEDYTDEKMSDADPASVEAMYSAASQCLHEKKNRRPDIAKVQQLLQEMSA
Description: IMAP fluorescence polarization kinase assay, […] ATP. It counts as biochemical.

In experiment [2] the target is T2, interleukin-1 receptor-associated kinase 4 (IRAK4) (Homo sapiens, UniProt Q9NWZ3).
T2 construct: kinase domain, aa 153–460, N-terminal His6-tagged
T2 sequence (Q9NWZ3 153-460): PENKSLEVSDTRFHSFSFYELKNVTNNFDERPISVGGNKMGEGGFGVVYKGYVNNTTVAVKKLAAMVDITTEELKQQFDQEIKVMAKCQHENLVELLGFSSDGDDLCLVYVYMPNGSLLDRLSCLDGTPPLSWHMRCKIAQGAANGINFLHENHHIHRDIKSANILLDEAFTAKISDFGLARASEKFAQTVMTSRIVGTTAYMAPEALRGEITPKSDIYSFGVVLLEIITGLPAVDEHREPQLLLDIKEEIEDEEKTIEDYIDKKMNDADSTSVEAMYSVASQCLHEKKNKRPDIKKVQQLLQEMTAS
Description: IMAP fluorescence polarization kinase assay, […] ATP. It counts as biochemical.

With BI1543673, the IC50 in experiment [1] and in experiment [2] was around 2 nM in each case.
